What was measured:
[1] = for Aggregation during the series of STD titration experiments: up to 1:1 reference and competition ligand ratio (4 mM)
Experimental: We chose the TDG (5), a well-known, moderately bound ligand of hGal-3, as a reference ligand for our competition STD ^1H NMR experiments. As a first step, we recorded an STD ^1H NMR spectrum on the starting sample, which always contained 40 μM hGal-3 protein and 4 mM TDG (1:100 protein reference ligand ratio). Then, the titration was started by adding the synthesized competitor ligand into the NMR sample step-by-step, and we performed STD experiments on each solution composition. […] Thus, the 100% STD effect was determined as the H-4 intensity value of TDG (5) in the initial sample state, and its relative decrease caused by adding the competitor ligand in increasing concentration was measured in each titration step (Table 1).
All ^1H STD NMR experiments were recorded on a Bruker Avance Neo 700 MHz spectrometer equipped with a 5 mm z-gradient (TCI) triple-tuned Prodigy cryoprobe. The measurements were performed at a temperature of 303 K. The data acquisition and processing were performed with TopSpin 3.6.2 and 4.1.1 software. Samples were prepared in 10 mM phosphate buffer solution (140 mM NaCl/KCl, pH = 7.4) in D2O. The initial sample contained 40 μM of hGal-3 protein and 4 mM of compound 5 for each experiment. Competitor ligands were added to the initial samples from stock solutions of different concentrations so that the smallest volume (2 μL) could be added in each titration step. […] The protein resonances were selectively irradiated in competition STD experiments by Eburp (90°) excitation pulses, with a length of 50 ms each with a maximum B1 field strength of 75 Hz yielding a total irradiation time of 3 s. The off-resonance pulse frequency was set to −40 ppm and the on-resonance frequency to 0 ppm. Off- and on-resonance data were recorded at alternate scans, and the corresponding FIDs were collected in separate memories of subsequent processing files, and STD spectra were produced after subtraction of the two subspectra. Competition STD spectra were typically recorded with 1200 repetitions (NS = 8, L4 = 150) to ensure an adequate signal-to-noise ratio for the analysis.

hGal-3 protein = hGal-3 protein (Homo sapiens, UniProt P17931); assay: Competition STD 1H NMR titration against reference ligand TDG (5); type: binding; conditions: for Kd: calculated from IC50 with Kd(ref.) of TDG and Lref 4 mM (Equation 2); for Kd / Relative STD Intensity of H-4 of TDG titrated by competitor: 303 K; for Relative STD Intensity of H-4 of TDG titrated by competitor: 40 μM hGal-3, 4 mM TDG (5); for IC50: competitor concentration for 50% displacement of 4 mM TDG (5), 40 μM hGal-3, exponential fit; for Relative Affinity, Kd (ref.)/Kd (comp.): referenced to TDG (5), times stronger binding than TDG
Text: The competition STD NMR method provides an opportunity to characterize moderately and strongly bound protein–ligand systems (KD = 10^−6 M − 10^−9 M), where the determination is not feasible in direct STD experiment due to kinetic reasons. In the competition experiment, the concentration of the target protein and the reference ligand is kept at a constant level. An STD spectrum of the starting sample state is obtained. Then, by adding the competitive ligand in increasing concentration step-by-step, the resonance signal changes in the STD spectra can be monitored. If the competitor ligand binds strongly to the target protein, a decrease in the STD signal intensities of the reference ligand is observed. If the IC50 value is reached before the equimolar ratio of the reference and the competitor ligand, it can be concluded that the competitor binds more strongly than the selected reference compound to the protein. The strength of the interaction can be quantified by the determination of the dissociation constant value (KD).
By plotting the relative STD ^1H NMR signal intensities of the H-4 proton of the reference compound (5) as a function of the concentration of the given competitor ligand, the IC50 values can be determined (Figure 4). The IC50 value gives the concentration of the competitor ligand required to halve the signal intensity of the reference ligand in the STD spectrum, so it provides the competitor concentration required for 50% displacement of the reference compound (5). IC50 values were calculated based on the equation of the exponential function fitted to the points measured.
The dissociation constant of the interaction was calculated according to the following equation (Equation (1)):(1) Kd(ref.)=Lref×Kd(comp.)/IC50−Kd(comp.)
By rearranging this equation, the Kd value of the competitor ligand (Kd(comp.)) can be obtained (Equation (2)):(2) Kd(comp.)=Kd(ref.)×IC50/Lref+Kd(ref.) where Kd(ref.) refers to the dissociation constant of the reference ligand, Lref is the concentration of the reference ligand, Kd(comp.) is the dissociation constant of the competitor compound, and IC50 is the concentration of the competitor compound at half-signal intensity.

hGal-3 = biological target: hGal-3; design: method as in PMID 32955737; conditions: reference ligand TDG, ITC; cited from earlier work

Sequence of hGal-3 protein (P17931 whole entry): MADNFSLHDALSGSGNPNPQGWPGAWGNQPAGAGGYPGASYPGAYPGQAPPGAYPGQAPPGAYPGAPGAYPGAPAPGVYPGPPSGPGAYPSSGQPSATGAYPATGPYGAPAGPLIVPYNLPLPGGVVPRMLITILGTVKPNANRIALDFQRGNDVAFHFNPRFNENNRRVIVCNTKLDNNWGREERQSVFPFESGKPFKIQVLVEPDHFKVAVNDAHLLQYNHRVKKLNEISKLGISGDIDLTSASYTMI

OC[C@H]1O[C@@H](S[C@@H]2O[C@H](CO)[C@H](O)[C@H](OCc3ccc4ccccc4c3)[C@H]2O)[C@H](O)[C@@H](OCc2ccc3ccccc3c2)[C@H]1O [Compound 2, Bis-{3-O-[(Naphtalene-2-yl)Methyl]-β-D-Galactopyranosyl}-Sulfane]
Solubility ([1]; pH 7.4): uncertain | Kd (hGal-3 protein): 0.55 µM | Relative STD Intensity of H-4 of TDG titrated by competitor (hGal-3 protein; competitor 10 μM): 86% | Relative STD Intensity of H-4 of TDG titrated by competitor (hGal-3 protein; competitor 20 μM): 68% | Relative STD Intensity of H-4 of TDG titrated by competitor (hGal-3 protein; competitor 30 μM): 59% | Relative STD Intensity of H-4 of TDG titrated by competitor (hGal-3 protein; competitor 40 μM): 55% | Relative STD Intensity of H-4 of TDG titrated by competitor (hGal-3 protein; competitor 50 μM): 37% | Relative STD Intensity of H-4 of TDG titrated by competitor (hGal-3 protein; competitor 60 μM): 33% | Relative STD Intensity of H-4 of TDG titrated by competitor (hGal-3 protein; competitor 100 μM): 24% | IC50 (hGal-3 protein): 43 µM | Relative Affinity, Kd (ref.)/Kd (comp.) (hGal-3 protein): 94

OC[C@H]1O[C@@H](S[C@@H]2O[C@H](CO)[C@H](O)[C@H](OCc3ccc4ccccc4n3)[C@H]2O)[C@H](O)[C@@H](OCc2ccc3ccccc3n2)[C@H]1O [Compound 1, Bis-{3-O-[(Quinoline-2-yl)Methyl]-β-D-Galactopyranosyl}-Sulfane]
Aggregation during the series of STD titration experiments [1]: did not observe any aggregation | Kd (hGal-3 protein): 1.7 µM | Relative STD Intensity of H-4 of TDG titrated by competitor (hGal-3 protein; competitor 40 μM): 78% | Relative STD Intensity of H-4 of TDG titrated by competitor (hGal-3 protein; competitor 80 μM): 65% | Relative STD Intensity of H-4 of TDG titrated by competitor (hGal-3 protein; competitor 100 μM): 61% | Relative STD Intensity of H-4 of TDG titrated by competitor (hGal-3 protein; competitor 250 μM): 33% | Relative STD Intensity of H-4 of TDG titrated by competitor (hGal-3 protein; competitor 300 μM): 24% | Relative STD Intensity of H-4 of TDG titrated by competitor (hGal-3 protein; competitor 4000 μM): 0% | IC50 (hGal-3 protein): 134 µM | Relative Affinity, Kd (ref.)/Kd (comp.) (hGal-3 protein): 30

OC[C@H]1O[C@@H](S[C@@H]2O[C@H](CO)[C@H](O)[C@H](OCc3ccccc3)[C@H]2O)[C@H](O)[C@@H](OCc2ccccc2)[C@H]1O [Compound 3, Bis-(3-O-Benzyl-β-D-Galactopyranosyl)-Sulfane]
Aggregation during the series of STD titration experiments [1]: did not observe any aggregation | Kd (hGal-3 protein): 2.19 µM | Relative STD Intensity of H-4 of TDG titrated by competitor (hGal-3 protein; competitor 40 μM): 85% | Relative STD Intensity of H-4 of TDG titrated by competitor (hGal-3 protein; competitor 80 μM): 75% | Relative STD Intensity of H-4 of TDG titrated by competitor (hGal-3 protein; competitor 120 μM): 64% | Relative STD Intensity of H-4 of TDG titrated by competitor (hGal-3 protein; competitor 160 μM): 50% | Relative STD Intensity of H-4 of TDG titrated by competitor (hGal-3 protein; competitor 250 μM): 31% | Relative STD Intensity of H-4 of TDG titrated by competitor (hGal-3 protein; competitor 400 μM): 28% | Relative STD Intensity of H-4 of TDG titrated by competitor (hGal-3 protein; competitor 4000 μM): 0% | IC50 (hGal-3 protein): 172 µM | Relative Affinity, Kd (ref.)/Kd (comp.) (hGal-3 protein): 24

OC[C@H]1O[C@@H](S[C@@H]2O[C@H](CO)[C@H](O)[C@H](O)[C@H]2O)[C@H](O)[C@@H](O)[C@H]1O [Compound 5, Bis-(β-D-Galactopyranosyl)-Sulfane, reference compound]
Relative Affinity, Kd (ref.)/Kd (comp.) (hGal-3 protein): 1 | Kd (hGal-3): 51.4 µM
